# Data taken from patent US9850225B2, “Compounds useful as immunomodulators” (BRISTOL-MYERS SQUIBB COMPANY, priority 2014, dated 2017).
# Target: PD-1/PD-L1 interaction (PD-1-Ig / PD-L1-His) (Homo sapiens (Human), UniProt Q9NZQ7)
# Assay: PD-1/PD-L1 Homogenous Time-Resolved Fluorescence (HTRF) binding assay
# Settings: PD-1/PD-L1 HTRF binding assay; numeric value; read-out: Range or IC50
# Summary of the method: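 Human PD-L1-His (10 nM final) was pre-incubated with inhibitor for 15 min, then PD-1-Ig (20 nM final) was added for a further 15 min in dPBS with 0.1% BSA and 0.05% Tween-20. Binding was detected by HTRF using Eu-cryptate anti-Ig (1 nM) and APC anti-His (20 nM).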
# PD-1/PD-L1 interaction (PD-1-Ig / PD-L1-His), sequence (Q9NZQ7 other isoform, or with tags, fused parts or gaps): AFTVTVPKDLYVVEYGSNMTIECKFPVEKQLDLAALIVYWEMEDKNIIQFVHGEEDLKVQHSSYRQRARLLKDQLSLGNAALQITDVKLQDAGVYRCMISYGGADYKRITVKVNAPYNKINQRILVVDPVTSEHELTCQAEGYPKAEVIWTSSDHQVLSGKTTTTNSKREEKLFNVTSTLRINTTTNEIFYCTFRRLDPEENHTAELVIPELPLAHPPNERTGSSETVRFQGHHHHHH
row,IC50,Structure (SMILES)
1,1.88 nM,"Cc1cc(CN2CCCC[C@@H]2C(=O)O)c(OCc2cncc(C#N)c2)cc1OCc1cccc(-c2ccc3c(c2)OCCO3)c1C [Example 1288, (R)-1-(2-((5-cyanopyridin-3-yl)methoxy)-4-(3-(2,3-dihydrobenzo[b][1,4]dioxin-6-yl)-2-methylbenzyloxy)-5-methylbenzyl)piperidine-2-carboxylic acid]"
2,0.92 nM,"CC(=O)NCCNCc1cc(C)c(OCc2cccc(-c3ccc4c(c3)OCCO4)c2C#N)cc1OCc1cncc(C#N)c1 [Example 1305, N-(2-(4-(2-cyano-3-(2,3-dihydrobenzo[b][1,4]dioxin-6-yl)benzyloxy)-2-((5-cyanopyridin-3-yl)methoxy)-5-methylbenzylamino)ethyl)acetamide]"

# Same assay, conditions: PD-1/PD-L1 HTRF binding assay; value given as range class; read-out: Range or IC50
row,IC50,Structure (SMILES)
1,0.6 to 10 nM,"Cc1cc(CN[C@@H](CO)C(=O)O)c(OCc2cncc(C#N)c2)cc1OCc1cccc(-c2ccc3c(c2)OCCO3)c1C [Example 1284, (S)-2-(2-((5-cyanopyridin-3-yl)methoxy)-4-(3-(2,3-dihydrobenzo[b][1,4]dioxin-6-yl)-2-methylbenzyloxy)-5-methylbenzylamino)-3-hydroxypropanoic acid]"
2,0.6 to 10 nM,"Cc1cc(CN2CCCC[C@H]2C(=O)O)c(OCc2cncc(C#N)c2)cc1OCc1cccc(-c2ccc3c(c2)OCCO3)c1C [Example 1285, (S)-1-(2-((5-cyanopyridin-3-yl)methoxy)-4-(3-(2,3-dihydrobenzo[b][1,4]dioxin-6-yl)-2-methylbenzyloxy)-5-methylbenzyl)piperidine-2-carboxylic acid]"
3,0.6 to 10 nM,"Cc1cc(CN[C@@](C)(CO)C(=O)O)c(OCc2cncc(C#N)c2)cc1OCc1cccc(-c2ccc3c(c2)OCCO3)c1C [Example 1286, (S)-2-(2-((5-cyanopyridin-3-yl)methoxy)-4-(3-(2,3-dihydrobenzo[b][1,4]dioxin-6-yl)-2-methylbenzyloxy)-5-methylbenzylamino)-3-hydroxy-2-methylpropanoic acid]"
4,0.6 to 10 nM,"Cc1cc(CN[C@](C)(CO)C(=O)O)c(OCc2cncc(C#N)c2)cc1OCc1cccc(-c2ccc3c(c2)OCCO3)c1C [Example 1287, (R)-2-(2-((5-cyanopyridin-3-yl)methoxy)-4-(3-(2,3-dihydrobenzo[b][1,4]dioxin-6-yl)-2-methylbenzyloxy)-5-methylbenzylamino)-3-hydroxy-2-methylpropanoic acid]"
5,0.6 to 10 nM,"CCc1cc(CNCCNC(C)=O)c(OCc2cccc(C#N)c2)cc1OCc1cccc(-c2ccc3c(c2)OCCO3)c1C [Example 1289, N-(2-(2-(3-cyanobenzyloxy)-4-(3-(2,3-dihydrobenzo[b][1,4]dioxin-6-yl)-2-methylbenzyloxy)-5-ethylbenzylamino)ethyl)acetamide]"
6,0.6 to 10 nM,"CCc1cc(CN[C@@](C)(CO)C(=O)O)c(OCc2cccc(C#N)c2)cc1OCc1cccc(-c2ccc3c(c2)OCCO3)c1C [Example 1290, (S)-2-(2-(3-cyanobenzyloxy)-4-(3-(2,3-dihydrobenzo[b][1,4]dioxin-6-yl) -2-methylbenzyloxy)-5-ethylbenzylamino)-3-hydroxy-2-methylpropanoic acid]"
7,0.6 to 10 nM,"CCc1cc(CN[C@](C)(CO)C(=O)O)c(OCc2cccc(C#N)c2)cc1OCc1cccc(-c2ccc3c(c2)OCCO3)c1C [Example 1291, (R)-2-(2-(3-cyanobenzyloxy)-4-(3-(2,3-dihydrobenzo[b][1,4]dioxin-6-yl)-2-methylbenzyloxy)-5-ethylbenzylamino)-3-hydroxy-2-methylpropanoic acid]"
8,0.6 to 10 nM,"C=Cc1cc(CNCCNC(C)=O)c(OCc2cccc(C#N)c2)cc1OCc1cccc(-c2ccc3c(c2)OCCO3)c1C [Example 1292, N-(2-(2-(3-cyanobenzyloxy)-4-(3-(2,3-dihydrobenzo[b][1,4]dioxin-6-yl)-2-methylbenzyloxy)-5-vinylbenzylamino)ethyl)acetamide]"
9,0.6 to 10 nM,"C=Cc1cc(CN2CCCC[C@H]2C(=O)O)c(OCc2cccc(C#N)c2)cc1OCc1cccc(-c2ccc3c(c2)OCCO3)c1C [Example 1293, (S)-1-(2-(3-cyanobenzyloxy)-4-(3-(2,3-dihydrobenzo[b][1,4]dioxin-6-yl) -2-methylbenzyloxy)-5-vinylbenzyl)piperidine-2-carboxylic acid]"
10,0.6 to 10 nM,"Cc1c(COc2cc(OCc3cncc(C#N)c3)c(CN3CCCC[C@H]3C(=O)O)cc2Br)cccc1-c1ccccc1 [Example 1298, (S)-1-(5-bromo-2-((5-cyanopyridin-3-yl)methoxy)-4-((2-methylbiphenyl-3-yl)methoxy)benzyl)piperidine-2-carboxylic acid]"
11,0.6 to 10 nM,"CC(=O)NCCNCc1cc(Br)c(OCc2cccc(-c3ccc4c(c3)OCCO4)c2C)cc1OCc1cccc(C#N)c1 [Example 1299, N-(2-((5-bromo-2-((3-cyanobenzyl)oxy)-4-((3-(2,3-dihydrobenzo[b][1,4]dioxin-6-yl)-2-methylbenzyl)oxy)benzyl)amino)ethyl)acetamide]"
12,0.6 to 10 nM,"Cc1c(COc2cc(OCc3cccc(C#N)c3)c(CNC[C@@H](O)CC(=O)O)cc2Br)cccc1-c1ccc2c(c1)OCCO2 [Example 1300, (S)-4-((5-bromo-2-((3-cyanobenzyl)oxy)-4-((3-(2,3-dihydrobenzo[b][1,4]dioxin-6-yl)-2-methylbenzyl)oxy)benzyl)amino)-3-hydroxybutanoic acid]"
13,0.6 to 10 nM,"Cc1c(COc2cc(OCc3cccc(C#N)c3)c(CN[C@@H](CO)C(=O)O)cc2Br)cccc1-c1ccc2c(c1)OCCO2 [Example 1301, (S)-2-((5-bromo-2-((3-cyanobenzyl)oxy)-4-((3-(2,3-dihydrobenzo[b][1,4]dioxin-6-yl)-2-methylbenzyl)oxy)benzyl)amino)-3-hydroxypropanoic acid]"
14,0.6 to 10 nM,"Cc1c(COc2cc(OCc3cccc(C#N)c3)c(CN3CCCC[C@H]3C(=O)O)cc2Br)cccc1-c1ccc2c(c1)OCCO2 [Example 1302, (S)-1-(5-bromo-2-((3-cyanobenzyl)oxy)-4-((3-(2,3-dihydrobenzo[b][1,4]dioxin-6-yl)-2-methylbenzyl)oxy)benzyl)piperidine-2-carboxylic acid]"
15,0.6 to 10 nM,"Cc1c(COc2cc(OCc3cccc(C#N)c3)c(CN[C@](C)(CO)C(=O)O)cc2Br)cccc1-c1ccc2c(c1)OCCO2 [Example 1303, (R)-2-((5-bromo-2-((3-cyanobenzyl)oxy)-4-((3-(2,3-dihydrobenzo[b][1,4]dioxin-6-yl)-2-methylbenzyl)oxy)benzyl)amino)-3-hydroxy-2-methylpropanoic acid]"
16,0.6 to 10 nM,"Cc1c(COc2cc(OCc3cccc(C#N)c3)c(CN[C@@](C)(CO)C(=O)O)cc2Br)cccc1-c1ccc2c(c1)OCCO2 [Example 1304, (S)-2-((5-bromo-2-((3-cyanobenzyl)oxy)-4-((3-(2,3-dihydrobenzo[b][1,4]dioxin-6-yl)-2-methylbenzyl)oxy)benzyl)amino)-3-hydroxy-2-methylpropanoic acid]"
17,0.6 to 10 nM,"CC(=O)NCCNCc1cc(C)c(OCc2cccc(-c3ccc4c(c3)OCCO4)c2C#N)cc1OCc1cncc(C#N)c1 [Example 1305, N-(2-(4-(2-cyano-3-(2,3-dihydrobenzo[b][1,4]dioxin-6-yl)benzyloxy)-2-((5-cyanopyridin-3-yl)methoxy)-5-methylbenzylamino)ethyl)acetamide]"
18,0.6 to 10 nM,"Cc1cc(CNC[C@@H](O)CC(=O)O)c(OCc2cncc(C#N)c2)cc1OCc1cccc(-c2ccc3c(c2)OCCO3)c1C#N [Example 1307, (S)-4-(4-(2-cyano-3-(2,3-dihydrobenzo[b][1,4]dioxin-6-yl)benzyloxy)-2-((5-cyanopyridin-3-yl)methoxy)-5-methylbenzylamino)-3-hydroxybutanoic acid]"
19,0.6 to 10 nM,"Cc1cc(CN[C@@](C)(CO)C(=O)O)c(OCc2cncc(C#N)c2)cc1OCc1cccc(-c2ccc3c(c2)OCCO3)c1C#N [Example 1308, (S)-2-(4-(2-cyano-3-(2,3-dihydrobenzo[b][1,4]dioxin-6-yl)benzyloxy)-2-((5-cyanopyridin-3-yl)methoxy)-5-methylbenzylamino)-3-hydroxy-2-methylpropanoic acid]"
20,0.6 to 10 nM,"Cc1cc(CN2CCCC[C@H]2C(=O)O)c(OCc2cncc(C#N)c2)cc1OCc1cccc(-c2ccc3c(c2)OCCO3)c1C#N [Example 1309, (S)-1-(4-(2-cyano-3-(2,3-dihydrobenzo[b][1,4]dioxin-6-yl)benzyloxy)-2-((5-cyanopyridin-3-yl)methoxy)-5-methylbenzyl)piperidine-2-carboxylic acid]"
21,0.6 to 10 nM,"Cc1cc(CN[C@H](CO)C(=O)O)c(OCc2cncc(C#N)c2)cc1OCc1cccc(-c2ccc3c(c2)OCCO3)c1C#N [Example 1310, (R)-2-(4-(2-cyano-3-(2,3-dihydrobenzo[b][1,4]dioxin-6-yl)benzyloxy)-2-((5-cyanopyridin-3-yl)methoxy)-5-methylbenzylamino)-3-hydroxypropanoic acid]"

row,Structure (SMILES),IC50
1,"CC(=O)NCCNCc1cc(C)c(OCc2cccc(-c3ccc4c(c3)OCCO4)c2C)cc1OCCCCC#N [Example 1294, N-(2-(2-(4-cyanobutoxy)-4-(3-(2,3-dihydrobenzo[b][1,4]dioxin-6-yl)-2-methylbenzyloxy)-5-methylbenzylamino)ethyl)acetamide]",10 to 100 nM
2,"Cc1cc(CNC[C@@H](O)CC(=O)O)c(OCCCCC#N)cc1OCc1cccc(-c2ccc3c(c2)OCCO3)c1C [Example 1295, (S)-4-(2-(4-cyanobutoxy)-4-(3-(2,3-dihydrobenzo[b][1,4]dioxin-6-yl)-2-methylbenzyloxy)-5-methylbenzylamino)-3-hydroxybutanoic acid]",0.6 to 10 nM
3,"Cc1cc(CN2CCCC[C@H]2C(=O)O)c(OCCCCC#N)cc1OCc1cccc(-c2ccc3c(c2)OCCO3)c1C [Example 1296, (S)-1-(2-(4-cyanobutoxy)-4-(3-(2,3-dihydrobenzo[b][1,4]dioxin-6-yl)-2-methylbenzyloxy)-5-methylbenzyl)piperidine-2-carboxylic acid]",10 to 100 nM
4,"Cc1cc(CN[C@@](C)(CO)C(=O)O)c(OCCCCC#N)cc1OCc1cccc(-c2ccc3c(c2)OCCO3)c1C [Example 1297, (S)-2-(2-(4-cyanobutoxy)-4-(3-(2,3-dihydrobenzo[b][1,4]dioxin-6-yl)-2-methylbenzyloxy)-5-methylbenzylamino)-3-hydroxy-2-methylpropanoic acid]",0.6 to 10 nM
